Measurements published in patent US20180149639A1, “MODELING NEURAL NETWORK DYSFUNCTION” (priority 2014, published 2018).
“Also recorded” adds a separate entry of the source.

Key:
[1] = test system: WT cortical networks; assay: MEA recordings of WT cortical cultures (spike rate, NAP/NIP duration from ASDR plot); format: cell-based, mice
Experimental: (§1) Primary dissociated cortical neurons were prepared from postnatal day 0 wild type and Shank3 KO mice (Peca et al., 2011) from littermates using standard protocols as described before (Ramamoorthi et al., 2011). For micro-electrode array recordings, dissociated neurons were plated onto substrate embedded electrodes pre-coated with polyethyleneimine (PEI) (Sigma-Aldrich, 0.1%) plus laminin (Life Technologies, 20 μg/ml) at a density of 3×10^3 cells/mm^2. For biochemical experiments, 3×10^5 cells were plated onto 1 well of the 24-well plate pre-coated with 20 μg/ml Poly-D-lysine (PDL, Sigma-Aldrich) and 4 μg/ml laminin (Life Technologies). The cultures were treated with AraC (Sigma-Aldrich, 1 μg/ml) at day 5 in vitro, and maintained up to 21 days after plating.
(§2) The electrical activity of cultured neurons was recorded using MEA2100-Systems (Multichannel Systems) with integrated amplifier. Each MEA dish (6-well MEA 200/30 iR-Ti-rcr, Multichannel Systems) contains six wells, with 9 microelectrodes (TiN, 30 μm diameter) arranged over a 3×3 square grid at 200 μm inter-electrode distance in each MEA well (FIG. 1C). Recordings started 10 minutes after the MEA plates were placed to the headstage, which was set to 35° C., and the culture was supplied with continuous perfusion of 5% carbon dioxide balanced air (Airgas) throughout recording. For all time points earlier than 21 days in vitro (DIV21), MEA recordings lasted 15 minutes. At DIV21, MEA recordings lasted 30 minutes. All MEA recordings were performed in culture medium without perfusion. The electric signals were collected at 10 kHz with MCRack (Multichannel Systems; Version 4.4.2) and analyzed offline.
(§3) The software MCRack was used for spike detection. Raw MEA data was first high-pass filtered at 200 Hz to remove the low-frequency local field potentials. […] The average detection threshold is around 16 μV. Spike sorting was not performed, thus multiunit activity may contribute to the spikes detected from one electrode. Timestamps of spikes were stored and used for further analysis.
(§4) ASDR plot was generated using the method modified from Wagenaar et al. (2008) by summing the number of spikes detected per 200 ms from all electrodes in each well and plotted in time series. Clampfit 10.2 (Molecular Devices) was used for ASDR waveform analysis. 5% of individual ASDR's maximum peak value was calculated and set as the detecting threshold for identifying ASDR spike. […] ASDR spikes with ISIs below 10 seconds were grouped together and defined as network active period (NAP).
(§5) All drugs were dissolved in DMSO to make stock solutions before applying to neurons in culture media for pharmacological studies. Picrotoxin (PTX, stock solution of 100 mM) for blocking GABAA receptors (Tocris), Clonazepam (stock solution of 30 mM) as GABAA receptor positive modulator (Sigma), NBQX (stock solution of 10 mM) for blocking AMPA receptor (Abcam), and CX546 (stock solution of 100 mM) as AMPA receptor potentiator (Tocris) were used in doses as described herein. The maximum concentration of DMSO in the culture media with drug application was 0.08% volume.

[2] = test system: Shank3 KO cortical networks; assay: MEA recordings of Shank3 KO cortical cultures (spike rate, NAP/NIP duration from ASDR plot); format: cell-based, mice; settings: for NIP duration relative to WT level: 100 nM
Experimental: as §1, §2, §3, §4, §5

O=C(c1ccc2c(c1)OCCO2)N1CCCCC1 [CX546]
NIP duration (decreased to) ([1]; WT cortical networks DIV21, 30 μM): 58±11% | length of NAP ([1]; WT cortical networks DIV21, up to 30 μM): remained unchanged | mean spike rate (reduced-firing) in spontaneous network ([2]; Shank3 KO cultures DIV21, 30 μM): rescued the reduced-firing; also recorded: rescued the hypoactive network | mean spike rate (reduced-firing) in PTX-treated network ([2]; Shank3 KO cultures DIV21 with 50 μM PTX, 30 μM): effectively rescued the reduced-firing | duration of NAP ([2]; Shank3 KO networks DIV21): did not significantly change | duration of NIP ([2]; Shank3 KO networks DIV21, CX546 treatment): did not significantly change; also recorded: did not recover the network defect

NS(=O)(=O)c1cccc2c1c([N+](=O)[O-])cc1nc(O)c(O)nc12 [NBQX]
NIP duration (enhanced by) ([1]; WT cortical networks DIV21, 1 μM): 560±85%

O=C1CN=C(c2ccccc2Cl)c2cc([N+](=O)[O-])ccc2N1 [CLP, Clonazepam]
NIP duration, dose dependence ([1]; WT cortical networks DIV21): dose dependently elongated | NIP duration, % longer ([1]; WT cortical networks DIV21, 100 nM, vs before treatment (basal)): 42±14% | NIP duration, dose dependence ([2]; Shank3 KO networks DIV21): dose dependently increased | NIP duration relative to WT level ([2]; Shank3 KO networks DIV21): normalized the shortened NIP in the Shank3 KO network to the level of WT; also recorded: normalized reduced NIP duration | NIP duration relative to WT level ([2]; Shank3 KO networks DIV21, listed as clonazepam): normalized

Picrotoxin [PTX]
NIP duration compared to basal (reduced to) ([1]; WT cortical networks DIV21, 0.2 μM): 51±6% | NIP duration compared to basal (reduced to) ([1]; WT cortical networks DIV21, 0.5 μM): 44±6% | length of NAP ([1]; WT cortical networks DIV21, up to 0.5 μM): remained unchanged | mean spike rate ([1]; WT cultures DIV21, 50 μM, vs before treatment): significantly increased | mean spike rate ([2]; Shank3 KO cultures DIV21, 50 μM, vs before treatment): significantly increased
